Test results taken from US20210330611A1, “THERAPY FOR NEUROLOGICAL DISEASES/DISORDERS” (priority 2020, published 2021).
Where a name gives a salt, the structure may show the parent alone. Read-outs that look alike come from different tables or passages of the source.

Tests used:
[1] = test system: fibrin- and LPS-induced microglia activation; test: cells; assay type: cell-based, rat
primary rat microglia [2] = test: Cell toxicity (dead cells, size <150 μm2) in LPS assay
[3] = test system: fibrin-induced microglia activation; test: Image-based assay of fibrin-induced microglia activation (HTS and dose response); assay type: cell-based, rat; conditions: for inhibition at 10 µM: Rattus norvegicus, Microglia, read-out: Fibrin % inhibition
primary rat microglia [4] = test: Cell toxicity (dead cells, size <150 μm2) in coated fibrin (cFib) assay;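 also: share of dead cells sized under 150 µm2 at 10 µM in fibrin-stimulated microglia HTS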
[5] = test system: LPS-induced microglia activation; test: Image-based assay of LPS-induced microglia activation (HTS and dose response); assay type: cell-based, rat; conditions: for inhibition at 10 µM: Rattus norvegicus, Microglia, read-out: LPS % inhibition
[6] = primary HTS, 10 μM, LPS assay, dead cells size <150 μm2
[7] = primary HTS, 10 μM, fibrin-stimulated primary microglia
[8] = primary HTS, 10 μM, fibrin assay, dead cells size <150 μm2
[9] = primary HTS, 10 μM, LPS-stimulated primary microglia
[10] = quadrant by fibrin and LPS inhibition in HTS of 1907 compounds
[11] = primary microglia HTS, LPS stimulation, decreased size (<150 μm^2) as marker of toxicity
[12] = primary microglia HTS, fibrin stimulation, increased cell size (>800 μm^2) as marker of activation
[13] = primary microglia HTS, fibrin stimulation, decreased size (<150 μm^2) as marker of toxicity
[14] = 48 h, primary microglia HTS, LPS stimulation, increased cell size (>800 μm^2) as marker of activation
[15] = primary microglia HTS, LPS stimulation, toxicity = cell size <150 μm2
[16] = primary microglia HTS, fibrin stimulation, activation = cell size >800 μm2
[17] = primary microglia HTS, fibrin stimulation, toxicity = cell size <150 μm2

With `Cn1nnnc1SCC1=C(C(=O)O)N2C(=O)[C@@H](NC(=O)[C@H](O)c3ccccc3)[C@H]2SC1` [Cefamandole Sodium] the “Quadrant (FIG. 5b)” value ([1]; primary HTS, 10 μM) was “Q4”, the “LPS % cell toxicity” value (primary rat microglia [2]; [6]) was 0% and the inhibition at 10 µM [3, 7] was -12%. The “Fibrin % cell toxicity” value (primary rat microglia [4]; [8]) was 1% and the inhibition at 10 µM [5, 9] was 16%.

With `CC(=O)OCC(=O)[C@@]1(O)[C@@H](C)C[C@H]2[C@@H]3CCC4=CC(=O)C=C[C@]4(C)[C@@]3(F)[C@@H](O)C[C@@]21C` [Betamethasone Acetate] the “Quadrant (FIG. 5b)” value [1, 10] was “Q2”, the “LPS % cell toxicity” value (primary rat microglia [2]; [11]) was 4% and the inhibition at 10 µM [3, 12] was 107%. The “Fibrin % cell toxicity” value (primary rat microglia [4]; [13]) was 3% and the inhibition at 10 µM [5, 14] was 100%.

For `O=C(N/N=C/c1ccc([N+](=O)[O-])o1)c1cc([N+](=O)[O-])cc([N+](=O)[O-])c1O` [Nifursol], the “Quadrant (FIG. 5b)” value [1, 10] was “Q4”, the “LPS % cell toxicity” value (primary rat microglia [2]; [11]) was 0% and the inhibition at 10 µM [3, 12] was 47%. The “Fibrin % cell toxicity” value (primary rat microglia [4]; [13]) was 1% and the inhibition at 10 µM [5, 14] was 20%.

In the case of `Cc1cc(C)cc(OCC2CNC(=O)O2)c1` (centres unmarked) [Metaxalone], the “Quadrant (FIG. 5b)” value [1, 10] is reported as “Q4”, the “LPS % cell toxicity” value (primary rat microglia [2]; [11]) is reported as 0% and the inhibition at 10 µM [3, 12] is reported as 13%. For the same compound, the “Fibrin % cell toxicity” value (primary rat microglia [4]; [13]) was 1% and the inhibition at 10 µM [5, 14] was 6%.

For `CCC(CC)(CC(=O)Nc1cccc(/C=C/c2nc(C3CCC3)cs2)c1)C(=O)O` [Cinalukast], the “Quadrant (FIG. 5b)” value ([1]; primary HTS, 10 μM) was “Q4”, the “LPS % cell toxicity” value (primary rat microglia [2]; [6]) was 0% and the inhibition at 10 µM [3, 7] was -21%. The “Fibrin % cell toxicity” value (primary rat microglia [4]; [8]) was 1% and the inhibition at 10 µM [5, 9] was -8%.

In the case of `CC(C)(CO)C(O)C(=O)NCCCO` (centres unmarked) [Panthenol], the “Quadrant (FIG. 5b)” value [1, 10] is reported as “Q4”, the “LPS % cell toxicity” value (primary rat microglia [2]; [11]) is reported as 0% and the inhibition at 10 µM [3, 12] is reported as -32%. The “Fibrin % cell toxicity” value (primary rat microglia [4]; [13]) was 1% and the inhibition at 10 µM [5, 14] was 6%.

`O=C1c2ccccc2C(=O)C1c1ccc(Br)cc1` [Bromindione] was tested, and the “Quadrant (FIG. 5b)” value ([1]; primary HTS, 10 μM) was “Q4”, the “LPS % cell toxicity” value (primary rat microglia [2]; [6]) was 0% and the inhibition at 10 µM [3, 7] was 17%. For the same compound, the “Fibrin % cell toxicity” value (primary rat microglia [4]; [8]) was 1% and the inhibition at 10 µM [5, 9] was 27%.

With `CCCCC(CC)CNC(=N)NC(=N)NCCCCCCNC(=N)NC(=N)NCC(CC)CCCC` (centres unmarked) [Alexidine Hydrochloride] the “Quadrant (FIG. 5b)” value [1, 10] was “Q2”, the “LPS % cell toxicity” value (primary rat microglia [2]; [11]) was 9% and the inhibition at 10 µM [3, 12] was 108%. The “Fibrin % cell toxicity” value (primary rat microglia [4]; [13]) was 5% and the inhibition at 10 µM [5, 14] was 120%.

In the case of `COc1ccc(C(=O)NCc2ccc(OCCN(C)C)cc2)cc1OC` [Itopride, Itopride Hydrochloride], the “Quadrant (FIG. 5b)” value [1, 10] is reported as “Q4”, the “LPS % cell toxicity” value (primary rat microglia [2]; [15]) is reported as 0% and the Fibrin % inhibition [3, 16] is reported as −49%. The “Fibrin % cell toxicity” value (primary rat microglia [4]; [17]) was 0% and the LPS % inhibition ([5]; primary microglia HTS, LPS stimulation, activation = cell size >800 μm2) was 25%.

With `Nc1nnc(-c2cccc(Cl)c2Cl)c(N)n1` [Lamotrigine] the “Quadrant (FIG. 5b)” value [1, 10] was “Q4”, the “LPS % cell toxicity” value (primary rat microglia [2]; [15]) was 0% and the inhibition at 10 µM [3, 16] was -12%. The “Fibrin % cell toxicity” value (primary rat microglia [4]; [17]) was 1% and the inhibition at 10 µM ([5]; 48 h, primary microglia HTS, LPS stimulation, activation = cell size >800 μm2) was 12%.

For `Nc1ccc(S(=O)(=O)Nc2ccnn2-c2ccccc2)cc1` [Sulfaphenazole], the “Quadrant (FIG. 5b)” value ([1]; HTS of 1907 compounds, quadrant by fibrin and LPS inhibition) was “Q4”, the “LPS % cell toxicity” value (primary rat microglia [2]; primary microglia HTS, 10 μM, LPS assay, cell size <150 μm^2 as marker of toxicity) was 0% and the inhibition at 10 µM ([3]; primary microglia HTS, 10 μM, fibrin-stimulated, cell size >800 μm^2 as marker of activation) was -4%. For the same compound, the “Fibrin % cell toxicity” value (primary rat microglia [4]; primary microglia HTS, 10 μM, fibrin assay, cell size <150 μm^2 as marker of toxicity) was 1% and the inhibition at 10 µM ([5]; primary microglia HTS, 10 μM, LPS-stimulated, cell size >800 μm^2 as marker of activation) was 14%.

With `CO[C@@]1(NC(=O)Cc2cccs2)C(=O)N2C(C(=O)O)=C(COC(N)=O)CS[C@@H]21` [Cefoxitin] the “Quadrant (FIG. 5b)” value ([1]; primary HTS, 10 μM) was “Q4”, the “LPS % cell toxicity” value (primary rat microglia [2]; [6]) was 0% and the inhibition at 10 µM [3, 7] was 6%. For the same compound, the “Fibrin % cell toxicity” value (primary rat microglia [4]; [8]) was 0% and the inhibition at 10 µM [5, 9] was 8%.

In the case of `O=S(=O)(O)CCS` [Mesna], the “Quadrant (FIG. 5b)” value [1, 10] is reported as “Q4”, the “LPS % cell toxicity” value (primary rat microglia [2]; [11]) is reported as 0% and the inhibition at 10 µM [3, 12] is reported as 18%. For the same compound, the “Fibrin % cell toxicity” value (primary rat microglia [4]; [13]) was 1% and the inhibition at 10 µM [5, 14] was 5%.

For `CN1C(=O)CCS(=O)(=O)C1c1ccc(Cl)cc1` (centres unmarked) [Chlomezanone, Chlormezanone], the “Quadrant (FIG. 5b)” value ([1]; primary HTS, 10 μM) was “Q4”, the “LPS % cell toxicity” value (primary rat microglia [2]; [6]) was 0% and the Fibrin % inhibition [3, 7] was −52%. For the same compound, the “Fibrin % cell toxicity” value (primary rat microglia [4]; [8]) was 1% and the LPS % inhibition [5, 9] was 12%.

`O=C(NCc1ccccc1)OCCO` [Buramate] was tested, and the “Quadrant (FIG. 5b)” value ([1]; primary HTS, 10 μM) was “Q4”, the “LPS % cell toxicity” value (primary rat microglia [2]; [6]) was 0% and the inhibition at 10 µM [3, 7] was 9%. For the same compound, the “Fibrin % cell toxicity” value (primary rat microglia [4]; [8]) was 1% and the inhibition at 10 µM [5, 9] was 17%.

In the case of `CC1(C)S[C@@H]2[C@H](NC(=O)Cc3ccccc3)C(=O)N2[C@H]1C(=O)O` [Benzylpenicillin], the “Quadrant (FIG. 5b)” value ([1]; primary HTS, 10 μM) is reported as “Q4”, the “LPS % cell toxicity” value (primary rat microglia [2]; [6]) is reported as 0% and the inhibition at 10 µM [3, 7] is reported as 29%. For the same compound, the “Fibrin % cell toxicity” value (primary rat microglia [4]; [8]) was 1% and the inhibition at 10 µM [5, 9] was 42%.
